# According to patent publication US20040116440A1, “Bombesin receptor antagonists” (priority 2000, published 2004):
# How the values were obtained:
# [1] = target: T1, cloned human GRP-preferring receptor (BB2) (Homo sapiens, UniProt P30550); assay: BB2 binding assay, [125I][Tyr4]bombesin competition on membranes of CHO-K1 cells; settings: 90 minutes
# T1 construct: expressed in transfected cells; membranes prepared from the cells
# Description: (§1) The compounds of the invention have been evaluated in receptor binding assays which measure their affinity in a cloned human NMB-preferring receptor (BB1) assay and in a cloned human GRP-preferring receptor (BB2) assay. […] Accordingly they may be useful for the diagnosis, prevention, or treatment of male sexual dysfunction in humans and animals, female sexual dysfunction in humans and animals, anxiety and panic disorders, social phobia, depression, psychoses, sleeping disorders, memory impairment, pulmonary hypertension, lung repair and lung development disorders, cancer including prostate cancer and pancreatic cancer, hepatic porphyria, gastrointestinal secretory disturbances, gastrointestinal disorders including colitis, Crohn's disease and inflammatory bowel disease, emesis, anorexia, pain, seasonal affective disorders, feeding disorders, or pruritus.
# (§2) In the following experiments, measurement of BB1 and BB2 binding was as follows. CHO-K1 cells stably expressing cloned human NMB (for (BB1 assay) and GRP receptors (for BB2 assay) were routinely grown in Ham's F12 culture medium supplemented with 10% foetal calf serum and 2 mM glutamine. For binding experiments, cells were harvested by trypsinization, and stored frozen at −70° C. in Ham's F12 culture medium containing 5% DMSO until required. On the day of use, cells were thawed rapidly, diluted with an excess of culture medium, and centrifuged for 5 minutes at 2000 g. Cells were resuspended in 50 mM Tris-HCl assay buffer (pH 7.4 at 21° C., containing 0.02% BSA, […] bacitracin, […] chymostatin, […] leupeptin, and 2 mM phosphoramidon), counted, and polytronned (setting 5, 10 sec) before centrifuging for 10 minutes at 28,000 g. The final pellet was resuspended in assay buffer to a final cell concentration of 1.5×10^5/mL. For binding assays, 200 μL aliquots of membranes were incubated with [^125I][Tyr^4]bombesin (<0.1 nM) in the presence and absence of test compounds (final assay volume 250 μL) for 60 minutes and 90 minutes for NMB and GRP receptors, respectively. Nonspecific binding was defined by 1 μM bombesin. Assays were terminated by rapid filtration under vacuum onto Whatman GF/C filters presoaked in 0.2% PEI for >2 hours, and washed 50 mM Tris-HCl (pH 6.9 at 21° C.; 6×1 mL). Radioactivity bound was determined using a gamma counter.
# All competition data was analysed using nonlinear regression utilising iterative curve-plolting procedures in Prism® (GraphPad Software Inc., San Diego, USA). IC50 values were corrected to Ki values using the Cheng-Prusoff equation (Cheng Y., Prusoff W. H., Biochem. Pharmacol. 22: 3099-3108, 1973).
# [2] = target: T2, cloned human NMB-preferring receptor (BB1) (Homo sapiens, UniProt P28336); assay: BB1 binding assay, [125I][Tyr4]bombesin competition on membranes of CHO-K1 cells; settings: 60 minutes
# T2 construct: expressed in transfected cells; membranes prepared from the cells
# Description: as §1
# as §2, with “For binding assays, 200 μL aliquots of membranes were incubated with [^125I][Tyr^4]bombesin (<0.1 nM) in the presence and absence of test compounds (final assay volume 250 μL) for 60 minutes and 90 minutes for NMB and GRP receptors, respectively. Nonspecific binding was defined by 1 μM bombesin. Assays were terminated by rapid filtration under vacuum onto Whatman GF/C filters presoaked in 0.2% PEI for >2 hours, and washed 50 mM Tris-HCl (pH 6.9 at 21° C.; 6×1 mL).” left out
# All competition data was analysed using nonlinear regression utilising iterative curve-plolting procedures in Prism® (GraphPad Software Inc., San Diego, USA). […]
# [3] = Table 2, N-acyl derivatives of Intermediate VIa
# [4] = Table 6, N-terminal sulfonamide derivatives
# T1 sequence (P30550 whole entry): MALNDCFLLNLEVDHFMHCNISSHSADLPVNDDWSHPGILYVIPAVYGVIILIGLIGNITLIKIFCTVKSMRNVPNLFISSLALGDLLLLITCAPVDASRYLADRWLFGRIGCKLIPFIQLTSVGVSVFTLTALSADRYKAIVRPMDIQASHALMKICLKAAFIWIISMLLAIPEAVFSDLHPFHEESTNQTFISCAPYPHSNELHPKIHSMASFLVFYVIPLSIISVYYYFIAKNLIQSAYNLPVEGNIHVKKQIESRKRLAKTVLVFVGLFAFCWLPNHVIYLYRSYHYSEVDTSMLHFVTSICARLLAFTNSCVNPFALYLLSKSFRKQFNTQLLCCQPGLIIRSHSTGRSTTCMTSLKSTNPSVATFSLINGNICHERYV
# T2 sequence (P28336 whole entry): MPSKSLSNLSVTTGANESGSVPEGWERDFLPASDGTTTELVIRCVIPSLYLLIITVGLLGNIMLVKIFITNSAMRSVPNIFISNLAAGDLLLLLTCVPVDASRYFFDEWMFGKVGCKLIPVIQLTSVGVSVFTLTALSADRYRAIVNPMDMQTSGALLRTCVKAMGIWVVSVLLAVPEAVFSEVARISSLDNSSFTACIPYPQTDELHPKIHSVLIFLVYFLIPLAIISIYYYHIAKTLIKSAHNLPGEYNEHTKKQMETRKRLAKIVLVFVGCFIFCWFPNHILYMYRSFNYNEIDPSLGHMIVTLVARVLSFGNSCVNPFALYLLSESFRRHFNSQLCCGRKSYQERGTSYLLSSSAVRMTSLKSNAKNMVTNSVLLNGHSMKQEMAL
molecule,measurement,setting,value
"Cc1ccccc1CC(=O)N[C@@](C)(Cc1c[nH]c2ccccc12)C(=O)NCC1(c2ccccn2)CCCCC1 [Example 20, (S)-3-(1H-Indol-3-yl)-2-methyl-N-(1-pyridin-2-yl-cyclohexylmethyl)-2-(2-o-tolyl-ethanoylamino)-propionamide]",IC50,[1]; [3],> 10000 nM
"C[C@@](Cc1c[nH]c2ccccc12)(NS(=O)(=O)c1cc(Cl)sc1Cl)C(=O)NCC1(c2ccccn2)CCCCC1 [Example 126, (S)-2-(2,5-Dichloro-thiophene-3-sulfonylamino)-3-(1H-indol-3-yl)-2-methyl-N-(1-pyridin-2-yl-cyclohexylmethyl)-propionamide]",IC50,[1]; [4],> 10000 nM
"C[C@@](Cc1c[nH]c2ccccc12)(NS(=O)(=O)c1cc(C(F)(F)F)ccc1Cl)C(=O)NCC1(c2ccccn2)CCCCC1 [Example 135, (S)-2-(2-Chloro-5-trifluoromethyl-benzenesulfonylamino)-3-(1H-indol-3-yl)-2-methyl-N-(1-pyridin-2-yl-cyclohexylmethyl)-propionamide]",IC50,[1]; [4],> 10000 nM
same,IC50,[2]; [4],627 nM
"C[C@@](Cc1c[nH]c2ccccc12)(NS(=O)(=O)c1ccc(C(F)(F)F)cc1[N+](=O)[O-])C(=O)NCC1(c2ccccn2)CCCCC1 [Example 136, (S)-3-(1H-Indol-3-yl)-2-methyl-2-(2-nitro-4-trifluoromethyl-benzenesulfonylamino)-N-(1-pyridin-2-yl-cyclohexylmethyl)-propionamide]",IC50,[1]; [4],> 10000 nM
same,IC50,[2]; [4],758 nM
Dimethylamino-N {(S)-2-(1H-indol-3-yl)-1-methyl-1-[(1-pyridin-2-yl-cyclohexyl-methyl)-carbamoyl]-ethyl}-benzamide [Example 11],IC50,[2]; [3],2520 nM
